In ChEMBL document CHEMBL1649524, “Resistance selection studies comparing the activity of razupenem (PTZ601) to vancomycin and linezolid against eight methicillin-resistant and two methicillin-susceptible Staphylococcus aureus strains” (2009):
Values after ≈ are worked out from the molar mass of the structure shown.

Key:
Assay type in all cases: functional
Staphylococcus aureus [1] = assay: Antimicrobial activity against vancomycin-intermediate Staphylococcus aureus 1287 measured after 10 antibiotic-free subculturing by macrodilution method
Staphylococcus aureus [2] = assay: Antimicrobial activity against methicillin-resistant Staphylococcus aureus 547 measured on day 10 by macrodilution method; settings: Staphylococcus aureus, 547, 240 h
Staphylococcus aureus [3] = assay: Antimicrobial activity against methicillin-resistant Staphylococcus aureus 525 measured on day 35 by macrodilution method
Staphylococcus aureus [4] = assay: Antimicrobial activity against vancomycin-resistant Staphylococcus aureus 509 after 50 passages by macrodilution method
Staphylococcus aureus [5] = assay: Antimicrobial activity against vancomycin-resistant Staphylococcus aureus 509 measured on day 35 by macrodilution method
Staphylococcus aureus [6] = assay: Antimicrobial activity against methicillin-resistant Staphylococcus aureus 547 measured on day 15 by macrodilution method; settings: Staphylococcus aureus, 547, 360 h
Staphylococcus aureus [7] = assay: Antimicrobial activity against methicillin-resistant Staphylococcus aureus 547 measured on day 40 by macrodilution method
Staphylococcus aureus [8] = assay: Antimicrobial activity against methicillin-resistant Staphylococcus aureus 525 measured on day 50 by macrodilution method
Staphylococcus aureus [9] = assay: Antimicrobial activity against vancomycin-intermediate Staphylococcus aureus 1287 measured on day 5 by macrodilution method; settings: Staphylococcus aureus, 1287, 120 h
Staphylococcus aureus [10] = assay: Antimicrobial activity against methicillin-susceptible Staphylococcus aureus 540 measured on day 45 by macrodilution method
Staphylococcus aureus [11] = assay: Antimicrobial activity against vancomycin-intermediate Staphylococcus aureus 1287 measured on day 35 by macrodilution method
Staphylococcus aureus [12] = assay: Antimicrobial activity against vancomycin-intermediate Staphylococcus aureus 555 by macrodilution method
Staphylococcus aureus [13] = assay: Antimicrobial activity against heterogeneous vancomycin-intermediate Staphylococcus aureus 168 measured on day 5 by macrodilution method; settings: Staphylococcus aureus, 168, 120 h
Staphylococcus aureus [14] = assay: Antimicrobial activity against vancomycin-resistant Staphylococcus aureus 510 measured on day 30 by macrodilution method
Staphylococcus aureus [15] = assay: Antimicrobial activity against vancomycin-resistant Staphylococcus aureus 509 measured after 10 antibiotic-free subculturing by macrodilution method
Staphylococcus aureus [16] = assay: Antimicrobial activity against heterogeneous vancomycin-intermediate Staphylococcus aureus 873 measured on day 45 by macrodilution method
Staphylococcus aureus [17] = assay: Antimicrobial activity against vancomycin-resistant Staphylococcus aureus 509 measured on day 40 by macrodilution method
Staphylococcus aureus [18] = assay: Antimicrobial activity against methicillin-resistant Staphylococcus aureus 525 after 28 passages by macrodilution method
Staphylococcus aureus [19] = assay: Antimicrobial activity against methicillin-resistant Staphylococcus aureus 525 measured after 10 antibiotic-free subculturing by macrodilution method
Staphylococcus aureus [20] = assay: Antimicrobial activity against vancomycin-intermediate Staphylococcus aureus 555 measured on day 25 by macrodilution method; settings: Staphylococcus aureus, 555, 600 h
Staphylococcus aureus [21] = assay: Antimicrobial activity against methicillin-resistant Staphylococcus aureus 547 measured after 10 antibiotic-free subculturing by macrodilution method
Staphylococcus aureus [22] = assay: Antimicrobial activity against vancomycin-intermediate Staphylococcus aureus 555 measured on day 10 by macrodilution method; settings: Staphylococcus aureus, 555, 240 h
Staphylococcus aureus [23] = assay: Antimicrobial activity against vancomycin-resistant Staphylococcus aureus 510 measured on day 35 by macrodilution method
Staphylococcus aureus [24] = assay: Antimicrobial activity against heterogeneous vancomycin-intermediate Staphylococcus aureus 168 measured on day 35 by macrodilution method
Staphylococcus aureus [25] = assay: Antimicrobial activity against vancomycin-intermediate Staphylococcus aureus 1287 measured on day 50 by macrodilution method
Staphylococcus aureus [26] = assay: Antimicrobial activity against vancomycin-resistant Staphylococcus aureus 510 measured on day 15 by macrodilution method; settings: Staphylococcus aureus, 510, 360 h

C[C@H]1C=C(c2csc(SC3=C(C(=O)O)N4C(=O)[C@H]([C@@H](C)O)[C@H]4[C@H]3C)n2)CN1 [RAZUPENEM]
MIC (Staphylococcus aureus [1]): 0.25 µg/mL (≈ 0.613 µM)
MIC (Staphylococcus aureus [2]): 1 µg/mL (≈ 2.45 µM)
MIC (Staphylococcus aureus [3]): 16 µg/mL (≈ 39.3 µM)
MIC (Staphylococcus aureus [4]): 4 µg/mL (≈ 9.82 µM)
MIC (Staphylococcus aureus [5]): 4 µg/mL (≈ 9.82 µM)
MIC (Staphylococcus aureus [6]): 2 µg/mL (≈ 4.91 µM)
MIC (Staphylococcus aureus [7]): 16 µg/mL (≈ 39.3 µM)
MIC (Staphylococcus aureus [8]): 32 µg/mL (≈ 78.5 µM)
MIC (Staphylococcus aureus [9]): 0.25 µg/mL (≈ 0.613 µM)
MIC (Staphylococcus aureus [10]): 0.06 µg/mL (≈ 0.147 µM)
MIC (Staphylococcus aureus [11]): 2 µg/mL (≈ 4.91 µM)
MIC (Staphylococcus aureus [12]): 0.5 µg/mL (≈ 1.23 µM)
MIC (Staphylococcus aureus [13]): 4 µg/mL (≈ 9.82 µM)
MIC (Staphylococcus aureus [14]): 4 µg/mL (≈ 9.82 µM)
MIC (Staphylococcus aureus [15]): 1 µg/mL (≈ 2.45 µM)
MIC (Staphylococcus aureus [16]): 16 µg/mL (≈ 39.3 µM)
MIC (Staphylococcus aureus [17]): 4 µg/mL (≈ 9.82 µM)
MIC (Staphylococcus aureus [18]): 16 µg/mL (≈ 39.3 µM)
MIC (Staphylococcus aureus [19]): 8 µg/mL (≈ 19.6 µM)
MIC (Staphylococcus aureus [20]): 2 µg/mL (≈ 4.91 µM)
MIC (Staphylococcus aureus [21]): 0.125 µg/mL (≈ 0.307 µM)
MIC (Staphylococcus aureus [22]): 1 µg/mL (≈ 2.45 µM)
MIC (Staphylococcus aureus [23]): 4 µg/mL (≈ 9.82 µM)
MIC (Staphylococcus aureus [24]): 8 µg/mL (≈ 19.6 µM)
MIC (Staphylococcus aureus [25]): 4 µg/mL (≈ 9.82 µM)
MIC (Staphylococcus aureus [26]): 2 µg/mL (≈ 4.91 µM)
